Earlier results as cited in patent publication US12178851B2, “Methods for administering STING agonists” (GlaxoSmithKline Intellectual Property Development Limited, priority 2017, dated 2024).

Tests used:
[1] = tested on: CT26 syngeneic model; conditions: 20 daily i.v. doses of 20 mg/kg, dosed 4 h after injection of the tumor cells
[2] = tested on: CT26 syngeneic model

Row | SMILES | efficacy in CT26 model [1] | maximally tolerated i.p. dose ([2]; mouse, in vivo, ip) [µmol/kg] | cytokine levels in tumor and blood ([2]; once at 500 ug/mouse i.p.) | tumor growth inhibition ([2]; once at 500 ug/mouse i.p., established tumors)
1 | Nc1nc2c(ncn2[C@@H]2O[C@@H]3COP(=O)(O)O[C@H]4[C@@H](O)[C@H](n5cnc6c(N)ncnc65)O[C@@H]4COP(=O)(O)O[C@@H]2[C@@H]3O)c(=O)[nH]1 [2′3′-cGAMP] | some efficacy | – | – | –
2 | Cc1ccc2c(=O)c3cccc(CC(=O)O)c3oc2c1C [DMXAA, 5,6-Dimethylxanthenone-4-Acetic Acid] | – | ~99 | high cytokine levels both in the tumor and the blood | potently inhibits tumor growth, leading to cures in mice
